Assay results: patent publication US9126984B2, “4-(indol-3-yl)-pyrazole derivatives, pharmaceutical compositions and methods for use” (ITEOS THERAPEUTICS, priority 2013, dated 2015)

Key:
[1] = molecular target: T1, human recombinant TDO2 enzyme (Homo sapiens, UniProt P48775); assay: Assay for TDO2 enzymatic activity determination; assay type: biochemical; settings: human recombinant TDO2, L-Trp 1 mM, room temperature one hour, kynurenine absorbance at 480 nm
T1 construct: made in house
Procedure: To measure the TDO2 activity, the reaction mixture contained (final concentrations) potassium phosphate buffer (50 mM, pH 7.5), ascorbic acid (0.25 M), methylene blue (0.125 μM), catalase (40 units/mL, from bovine liver, Sigma), and human recombinant TDO2 enzyme (prepared as described in Dolusic et al. J. Med. Chem.; 2011, 54, 5320-5334; 0.9 μg) without or with the compounds of the present invention embodiments at the indicated concentrations (total volume 112.5 μL). The reaction was initiated by the addition of 37.5 μL of L-Trp (final concentration 1 mM) at room temperature. The reaction was conducted at room temperature during one hour and stopped by the addition of 30 μL of 30% (w/v) trichloroacetic acid.
To convert N-formylkynurenine into kynurenine, the reaction mixture was incubated at 65° C. for 30 min. Then 150 μL of the reaction mixture was mixed with 120 μL, of 2.5% (w/v) 4-(dimethylamino)-benzaldehyde in acetic acid and incubated for 5 min at room temperature. Kynurenine concentrations were determined by measuring the absorbance at 480 nm. A standard curve was made with pure kynurenine. The TDO activity was measured as described above using ten serial concentrations of certain embodiments of the compounds of the present invention. Data were fitted using the Prism software (GraphPad Software, Inc.).

[2] = molecular target: T2, murine mastocytoma P815 cells overexpressing hTDO2 (Homo sapiens, UniProt P48775); assay: Cellular assay for TDO2 activity determination; assay type: cell-based; settings: P815 cells overexpressing hTDO2, overnight incubation at 37° C., kynurenine absorbance at 480 nm
T2 construct: expressed in transfected cells; host or cells: murine mastocytoma P815 cells
Procedure: The assay was performed in 96-well flat bottom plates seeded with murine mastocytoma P815 cells overexpressing hTDO2 (prepared as described in Pilotte et al., PNAS, 2012, 109(7), 2497-2502), at a concentration of 5×10^4 cells/well in a final volume of 200 μL. To determine TDO or IDO activity, the cells were incubated overnight at 37° C. at 5% CO2 in IMDM (Invitrogen) supplemented with 2% FBS and 2% penicillin/streptomycin in the presence of the compounds of the present invention, at different concentrations.
The plates were then centrifuged 5 min at 1000 rpm, and 100 μL of the supernatant were collected in a conical plate, 30 uL of TCA 30% were added and a further centrifugated at 3000×g for 10 minutes. 100 μL of the supernatant were collected in a flat bottomed plate and 100 μL of 2% (w/v) 4-(dimethylamino)-benzaldehyde in acetic acid and incubated for 5 min at room temperature. Kynurenine concentrations were determined by measuring the absorbance at 480 nm. A standard curve was made with pure kynurenine. The TDO activity was measured as described above using ten serial concentrations of the compounds of the present invention. Data were fitted using the Prism software (GraphPad Software, Inc.).

T2 sequence (P48775 whole entry): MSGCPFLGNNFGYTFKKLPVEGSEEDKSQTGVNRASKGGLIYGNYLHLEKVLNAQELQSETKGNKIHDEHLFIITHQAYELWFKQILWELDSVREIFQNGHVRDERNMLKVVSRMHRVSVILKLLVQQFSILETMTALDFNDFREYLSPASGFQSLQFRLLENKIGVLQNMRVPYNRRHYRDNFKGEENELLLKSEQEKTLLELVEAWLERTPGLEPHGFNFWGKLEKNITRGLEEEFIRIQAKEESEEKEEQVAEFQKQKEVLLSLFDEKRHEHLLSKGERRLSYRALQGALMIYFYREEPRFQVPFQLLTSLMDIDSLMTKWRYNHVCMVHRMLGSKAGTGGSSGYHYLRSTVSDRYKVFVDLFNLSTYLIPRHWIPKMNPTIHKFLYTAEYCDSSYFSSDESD
T1 sequence (P48775 whole entry): as above

| SMILES | IC50 [1] | IC50 [2] |
| --- | --- | --- |
| O=C(O)[C@H]1C[C@H](n2cc(-c3c[nH]c4cc(F)ccc34)cn2)C1 [Example 66, (1R,3R)-3-(4-(6-fluoro-1H-indol-3-yl)-1H-pyrazol-1-yl)cyclobutanecarboxylic acid] | 10 to 100 µM | – |
| O=C(O)CCn1cc(-c2c[nH]c3cc(F)c(F)cc23)cn1 [Example 17, 3-(4-(5,6-difluoro-1H-indol-3-yl)-1H-pyrazol-1-yl)propanoic acid] | 10 to 100 µM | – |
| FC(F)(F)c1ccc2c(-c3cn[nH]c3)c[nH]c2c1 [Example 72, 3-(1H-pyrazol-4-yl)-6-(trifluoromethyl)-1H-indole] | 10 to 100 µM | – |
| CC(=O)N1CCN(CCn2cc(-c3c[nH]c4cc(F)ccc34)cn2)CC1 [Example 28, 1-(4-(2-(4-(6-fluoro-1H-indol-3-yl)-1H-pyrazol-1-yl)ethyl)piperazin-1-yl)ethanone] | 10 to 100 µM | – |
| O=C(O)Cn1cc(-c2c[nH]c3cc(F)ccc23)cn1 [Example 41, 2-(4-(6-fluoro-1H-indol-3-yl)-1H-pyrazol-1-yl)acetic acid] | 10 to 100 µM | – |
| O=C(O)[C@H]1C[C@@H](n2cc(-c3c[nH]c4cc(F)ccc34)cn2)C1 [Example 65, (1S,3S)-3-(4-(6-fluoro-1H-indol-3-yl)-1H-pyrazol-1-yl)cyclobutanecarboxylic acid] | 10 to 100 µM | – |
| Fc1ccc2c(-c3cnn(-c4ccc(Cl)nn4)c3)c[nH]c2c1 [Example 108, 3-(1-(6-chloropyridazin-3-yl)-1H-pyrazol-4-yl)-6-fluoro-1H-indole] | 10 to 100 µM | – |
| O=C(O)CCC(=O)N1CCC(Cn2cc(-c3c[nH]c4cc(F)ccc34)cn2)CC1 [Example 50, 4-(4-((4-(6-fluoro-1H-indol-3-yl)-1H-pyrazol-1-yl)methyl)piperidin-1-yl)-4-oxobutanoic acid] | 10 to 100 µM | – |
| CN(C)C(=O)CCn1cc(-c2c[nH]c3cc(F)ccc23)cn1 [Example 15, 3-(4-(6-fluoro-1H-indol-3-yl)-1H-pyrazol-1-yl)-N,N-dimethylpropanamide] | 1 to 10 µM | – |
| CNC(=O)[C@H]1C[C@@H](n2cc(-c3c[nH]c4cc(F)ccc34)cn2)C1 [Example 63, (1S,3S)-3-(4-(6-fluoro-1H-indol-3-yl)-1H-pyrazol-1-yl)-N-methylcyclobutanecarboxamide] | 1 to 10 µM | – |
| OCCN1CCC(n2cc(-c3c[nH]c4cc(F)ccc34)cn2)CC1 [Example 79, 2-(4-(4-(6-fluoro-1H-indol-3-yl)-1H-pyrazol-1-yl)piperidin-1-yl)ethanol] | 1 to 10 µM | – |
| CN(C)CCNC(=O)CCn1cc(-c2c[nH]c3cc(F)ccc23)cn1 [Example 13, N-(2-(dimethylamino)ethyl)-3-(4-(6-fluoro-1H-indol-3-yl)-1H-pyrazol-1-yl)propanamide] | 1 to 10 µM | – |
| O=C1NCCN1CCn1cc(-c2c[nH]c3cc(F)ccc23)cn1 [Example 18, 1-(2-(4-(6-fluoro-1H-indol-3-yl)-1H-pyrazol-1-yl)ethyl)imidazolidin-2-one] | 1 to 10 µM | – |
| Fc1ccc2c(-c3cnn(CC4CCN(CC(F)(F)F)CC4)c3)c[nH]c2c1 [Example 45, 6-fluoro-3-(1-((1-(2,2,2-trifluoroethyl)piperidin-4-yl)methyl)-1H-pyrazol-4-yl)-1H-indole] | 1 to 10 µM | – |
| NC(=O)N1CC(n2cc(-c3c[nH]c4cc(F)ccc34)cn2)C1 [Example 4, 3-(4-(6-fluoro-1H-indol-3-yl)-1H-pyrazol-1-yl)azetidine-1-carboxamide] | 1 to 10 µM | – |

More lines, now with the values ahead:

| IC50 [1] | IC50 [2] | SMILES |
| --- | --- | --- |
| 1 to 10 µM | – | CNC(=O)CCn1cc(-c2c[nH]c3cc(F)ccc23)cn1 [Example 14, 3-(4-(6-fluoro-1H-indol-3-yl)-1H-pyrazol-1-yl)-N-methylpropanamide] |
| 1 to 10 µM | – | COCCC(=O)N1CCC(n2cc(-c3c[nH]c4cc(F)ccc34)cn2)CC1 [Example 81, 1-(4-(4-(6-fluoro-1H-indol-3-yl)-1H-pyrazol-1-yl)piperidin-1-yl)-3-methoxypropan-1-one] |
| < 1 µM | < 1 µM | Fc1ccc2c(-c3cnn(-c4cccnc4)c3)c[nH]c2c1 [Example 112, 6-fluoro-3-(1-(pyridin-3-yl)-1H-pyrazol-4-yl)-1H-indole] |
| 1 to 10 µM | < 1 µM | Fc1ccc2c(-c3cnn(CCN4CCCC4)c3)c[nH]c2c1 [Example 29, 6-fluoro-3-(1-(2-(pyrrolidin-1-yl)ethyl)-1H-pyrazol-4-yl)-1H-indole] |
| < 1 µM | < 1 µM | Fc1cc2[nH]cc(-c3cn[nH]c3)c2cc1F [Example 71, 5,6-difluoro-3-(1H-pyrazol-4-yl)-1H-indole] |
| 1 to 10 µM | – | CNC(=O)NCCn1cc(-c2c[nH]c3cc(F)ccc23)cn1 [Example 23, 1-(2-(4-(6-fluoro-1H-indol-3-yl)-1H-pyrazol-1-yl)ethyl)-3-methylurea] |
| 1 to 10 µM | 1 to 10 µM | Fc1ccc2c(-c3cnn(-c4ccnnc4)c3)c[nH]c2c1 [Example 110, 6-fluoro-3-(1-(pyridazin-4-yl)-1H-pyrazol-4-yl)-1H-indole] |
| < 1 µM | < 1 µM | Fc1ccc2c(-c3cnn(CC4CCNCC4)c3)c[nH]c2c1 [Example 43, 6-fluoro-3-(1-(piperidin-4-ylmethyl)-1H-pyrazol-4-yl)-1H-indole] |
| 1 to 10 µM | < 1 µM | NC(=O)[C@H]1C[C@@H](n2cc(-c3c[nH]c4cc(F)ccc34)cn2)C1 [Example 61, (1S,3R)-3-(4-(6-fluoro-1H-indol-3-yl)-1H-pyrazol-1-yl)cyclobutanecarboxamide] |
| 1 to 10 µM | < 1 µM | Fc1ccc2c(-c3cnn(-c4cccnn4)c3)c[nH]c2c1 [Example 107, 6-fluoro-3-(1-(pyridazin-3-yl)-1H-pyrazol-4-yl)-1H-indole] |
| 1 to 10 µM | < 1 µM | CC(=O)N1CCC(Cn2cc(-c3c[nH]c4cc(F)ccc34)cn2)CC1 [Example 51, 1-(4-((4-(6-fluoro-1H-indol-3-yl)-1H-pyrazol-1-yl)methyl)piperidin-1-yl)ethanone] |
| 1 to 10 µM | – | O=C(O)CN1CCC(Cn2cc(-c3c[nH]c4cc(F)ccc34)cn2)CC1 [Example 49, 2-(4-((4-(6-fluoro-1H-indol-3-yl)-1H-pyrazol-1-yl)methyl)piperidin-1-yl)acetic acid] |
| 1 to 10 µM | – | CCC(=O)N1CCC(n2cc(-c3c[nH]c4cc(F)ccc34)cn2)CC1 [Example 82, 1-(4-(4-(6-fluoro-1H-indol-3-yl)-1H-pyrazol-1-yl)piperidin-1-yl)propan-1-one] |
| 1 to 10 µM | 1 to 10 µM | NC(=O)NCCn1cc(-c2c[nH]c3cc(F)ccc23)cn1 [Example 22, 1-(2-(4-(6-fluoro-1H-indol-3-yl)-1H-pyrazol-1-yl)ethyl)urea] |
| 1 to 10 µM | – | CNC(=O)N1CC(n2cc(-c3c[nH]c4cc(F)ccc34)cn2)C1 [Example 5, 3-(4-(6-fluoro-1H-indol-3-yl)-1H-pyrazol-1-yl)-N-methylazetidine-1-carboxamide] |
| < 1 µM | 1 to 10 µM | OCCN1CCC(Cn2cc(-c3c[nH]c4cc(F)ccc34)cn2)CC1 [Example 47, 2-(4-((4-(6-fluoro-1H-indol-3-yl)-1H-pyrazol-1-yl)methyl)piperidin-1-yl)ethanol] |
| 1 to 10 µM | – | CNC(=O)[C@H]1C[C@H](n2cc(-c3c[nH]c4cc(F)ccc34)cn2)C1 [Example 64, (1R,3R)-3-(4-(6-fluoro-1H-indol-3-yl)-1H-pyrazol-1-yl)-N-methylcyclobutanecarboxamide] |
| 1 to 10 µM | – | O=C(O)CCn1cc(-c2c[nH]c3cc(F)ccc23)cn1 [Example 16, 3-(4-(6-fluoro-1H-indol-3-yl)-1H-pyrazol-1-yl)propanoic acid] |
| 1 to 10 µM | – | CC(=O)N1CC(n2cc(-c3c[nH]c4cc(F)ccc34)cn2)C1 [Example 3, 1-(3-(4-(6-fluoro-1H-indol-3-yl)-1H-pyrazol-1-yl)azetidin-1-yl)ethanone] |
| 1 to 10 µM | – | O=C1CCCN1CCn1cc(-c2c[nH]c3cc(F)ccc23)cn1 [Example 30, 1-(2-(4-(6-fluoro-1H-indol-3-yl)-1H-pyrazol-1-yl)ethyl)pyrrolidin-2-one] |
| 1 to 10 µM | – | COC(=O)Cn1cc(-c2c[nH]c3cc(F)ccc23)cn1 [Example 42, methyl 2-(4-(6-fluoro-1H-indol-3-yl)-1H-pyrazol-1-yl)acetate] |
